In ChEMBL document CHEMBL1156063, “Design of new antifungal agents: synthesis and evaluation of 1-[(1H-indol-5-ylmethyl)amino]-2-phenyl-3-(1H-1,2,4-triazol-1-yl)propan-2-ols” (2009):
Values after ≈ are worked out from the molar mass of the structure shown. Active and inactive are the calls of the source. The rule behind the calls is not given here.

Assays:
Format in all cases: functional
[1] = test system: Aspergillus fumigatus; assay: Antifungal activity against Aspergillus fumigatus AF98003
[2] = test system: Candida albicans; assay: Antifungal activity against Candida albicans CA98001
[3] = test system: Pichia kudriavzevii; assay: Antifungal activity against fluconazole low-sensitive Candida krusei CK8
[4] = test system: Candida parapsilosis; assay: Antifungal activity against fluconazole-resistant Candida parapsilosis Rolland; settings: Lodderomyces parapsilosis
[5] = test system: Candida parapsilosis; assay: Antifungal activity against fluconazole-resistant Candida parapsilosis Houdeau; settings: Lodderomyces parapsilosis
[6] = test system: Pichia kudriavzevii; assay: Antifungal activity against fluconazole-resistant Candida krusei CK506
[7] = test system: Nakaseomyces glabratus; assay: Antifungal activity against fluconazole-resistant Candida glabrata CG468
[8] = test system: Candida albicans; assay: Antifungal activity against fluconazole-resistant Candida albicans CA424
[9] = test system: Candida albicans; assay: Antifungal activity against fluconazole-resistant Candida albicans CA284

Structure (SMILES)	MIC [1]	MIC [2]	other results
OC(CNCc1ccc2[nH]ccc2c1)(Cn1cncn1)c1ccc(Cl)cc1Cl (stereo unspecified)	inactive	0.031 µg/mL (≈ 0.0745 µM)	–
CN(Cc1ccc2[nH]cc(C(=O)C(F)(F)F)c2c1)CC(O)(Cn1cncn1)c1ccc(F)cc1F (stereo unspecified)	inactive	0.064 µg/mL (≈ 0.13 µM)	–
OC(Cn1cncn1)(Cn1cncn1)c1ccc(F)cc1F [FLUCONAZOLE]	–	0.19 µg/mL (≈ 0.62 µM)	MIC [3]: 19 µg/mL (≈ 62 µM); MIC [4]: > 64 µg/mL; MIC [5]: > 64 µg/mL; MIC [6]: > 64 µg/mL; MIC [7]: > 64 µg/mL; MIC [8]: > 64 µg/mL; MIC [9]: > 64 µg/mL
O=C(c1ccccc1)n1ccc2cc(CNCC(O)(Cn3cncn3)c3ccc(Cl)cc3Cl)ccc21 (stereo unspecified)	inactive	0.031 µg/mL (≈ 0.0596 µM)	–
CN(Cc1ccc2c(ccn2C(=O)OC(C)(C)C)c1)CC(O)(Cn1cncn1)c1ccc(F)cc1F (stereo unspecified)	inactive	0.06 µg/mL (≈ 0.121 µM)	–
O=C(c1ccccc1)n1ccc2cc(CNCC(O)(Cn3cncn3)c3ccc(F)cc3F)ccc21 (stereo unspecified)	inactive	0.027 µg/mL (≈ 0.0554 µM)	–
OC(CNCc1ccc2[nH]ccc2c1)(Cn1cncn1)c1ccc(F)cc1F (stereo unspecified)	inactive	0.034 µg/mL (≈ 0.0887 µM)	–
CC(C)(C)OC(=O)n1ccc2cc(CNCC(O)(Cn3cncn3)c3ccc(Cl)cc3Cl)ccc21 (stereo unspecified)	inactive	0.039 µg/mL (≈ 0.0755 µM)	–
CCC(C)n1ncn(-c2ccc(N3CCN(c4ccc(OCC5COC(Cn6cncn6)(c6ccc(Cl)cc6Cl)O5)cc4)CC3)cc2)c1=O (stereo unspecified) [ITRACONAZOLE]	0.42 µg/mL (≈ 0.595 µM)	–	–
CN(Cc1ccc2c(ccn2C(=O)c2ccccc2)c1)CC(O)(Cn1cncn1)c1ccc(F)cc1F (stereo unspecified)	inactive	0.032 µg/mL (≈ 0.0638 µM)	–
CN(Cc1ccc2[nH]ccc2c1)CC(O)(Cn1cncn1)c1ccc(F)cc1F (stereo unspecified)	inactive	0.035 µg/mL (≈ 0.0881 µM)	–
CC(C)(C)OC(=O)n1ccc2cc(CNCC(O)(Cn3cncn3)c3ccc(F)cc3F)ccc21 (stereo unspecified)	inactive	0.003 µg/mL (≈ 0.0062 µM)	MIC [3]: 3.8 µg/mL (≈ 7.86 µM); MIC [4]: 19 µg/mL (≈ 39.3 µM); MIC [5]: 24 µg/mL (≈ 49.6 µM); MIC [6]: 27 µg/mL (≈ 55.8 µM); MIC [7]: 12 µg/mL (≈ 24.8 µM); MIC [8]: 33 µg/mL (≈ 68.2 µM); MIC [9]: 32 µg/mL (≈ 66.2 µM)
